From patent US6362217B1, “Taxane anticancer agents” (Bristol-Myers Squibb Company, priority 2000, dated 2002)
Marks after values point to notes of the source that are not given here.

Legend:
[1] = system: murine lung carcinoma, M109; assay: In vivo antitumor testing, sc M109 tumor model; design: species or system mice; details: for iv activity compared to concomitantly evaluated iv paclitaxel: scM109 tumors
Description: (§1) Animals. Conventional or athymic (“nude”) mice, and nude rats, were implanted subcutaneously (sc) with tumor brei or fragments. Murine tumor were implanted in conventional mice, human tumors were implanted into nude mice or rats.
(§2) Tumors. A variety of tumors have been utilized but not all of them have necessarily been used to evaluate each and every taxane. The tumors utilized most often included the murine lung carcinoma, M109, the murine mammary carcinoma, MAM 16/C, the human ovarian carcinoma. A2780, the human colon tumors, HCT-116 and HCT-116/pk.
(§3) Treatments are initiated at differing times post-implantation depending upon the desired stringency of the test system; in general, the greater the delay post-tumor implantation, the larger the tumors at the start of therapy. Typically, treatments were begun in the M109 tumor model on Day 4 post-tumor implant, Day 7 in the MAM 16/C tumor model, and when tumors were between 100 and 500 mg in size (typically Day 7 to Day 12 post-tumor implant) for each of the human tumor xenograft models (e.g., A2780, HCT-116 and HCT-116/pk). Group sizes were typically 8 per treatment and control groups in mouse experiments and 7 per treatment and control groups in rat experiments.
Treatments for taxanes administered orally (po) were done by gavage using a vehicle consisting of 10% ethanol +10% Cremophor EL+80% water. The volume of liquid administered was 0.01 ml per gram of body weight for mice, and 0.005 ml per gram of body weight for rats. A typical mouse experiment would involve the evaluation of each test compound at three different dose levels, but only one to three test groups per compound were included in rat experiments. In every experiment, intravenously (iv) administered paclitaxel was included as a reference drug.
(§4) Paclitaxel was administered iv on treatment schedules and doses established from experience as being optimal, or near optimal, for the particular tumor, tumor staging, and host animal under study. It was given once daily, for five consecutive daily treatments (i.e., qd×5), when evaluated in the M109 and MAM 16/C tumor models, once daily every other day for five treatments (i.e., q2d×5) when administered to mice bearing human tumors, and once daily every other or every fourth day for five or three treatments, respectively (i.e., q2d×5 or q4d×3), to rats.
(§5) Orally administered taxanes were evaluated on the same treatment schedules just described for iv administered paclitaxel, plus other treatment schedules such as daily for nine days, or every eight days for two treatments.
Antitumor activity was assessed by determining the size of tumors in all treated and control experimental animals over time. Each animal was individually identified and the growth of the tumor implanted into each animal was measured once or twice weekly using a calipers. The difference in median time for tumors in treated (T) and control (C) groups to reach a predetermined size (e.g., 500 or 1,000 milligrams) was calculated, and assessments of absolute and relative antitumor effects (e.g., between compounds) were made on the basis of the delays in time to reach predetermined tumor target sizes. Animals with tumors of 35 mg or less at the termination of an experiment were termed “cures”. Experiments were terminated typically after a period of time had elapsed post-treatment that was at least 10 times the tumor volume doubling time (TVDT) of the median tumor growth in control animals as assessed prior to their reaching the predetermined tumor target size in each experiment. Activity in a test group was defined as having caused a delay in tumor growth (median time to reach tumor target size) relative to the concomitant control tumor growth (i.e. T-C) of 3.32 times the TVDT. Activity was expressed in log cell kill which was equal to (T-C)/(TVDT×3.32). Toxicity was determined by measuring the average body weight of all animals in an experiment prior to, and soon after, any treatments in the experiment. […]

[2] = system: human ovarian carcinoma A2780; assay: In vivo antitumor testing, A2780 xenograft model; design: species or system nude mice
Description: as §1, §2, §3
Treatments for taxanes administered orally (po) were done by gavage using a vehicle consisting of 10% ethanol +10% Cremophor EL+80% water. […]
as §4, §5
Antitumor activity was assessed by determining the size of tumors in all treated and control experimental animals over time. Each animal was individually identified and the growth of the tumor implanted into each animal was measured once or twice weekly using a calipers. The difference in median time for tumors in treated (T) and control (C) groups to reach a predetermined size (e.g., 500 or 1,000 milligrams) was calculated, and assessments of absolute and relative antitumor effects (e.g., between compounds) were made on the basis of the delays in time to reach predetermined tumor target sizes. […]

[3] = system: HCT-116 human colon carcinoma cells; assay: Cytotoxicity, MTS assay; format: cell-based; details: MTS procedure, 72 hours incubation
Description: (§6) Cytoxicity was assessed in HCT-116 human colon carcinoma cells by either using an XTT or MTS procedure.
Cytoxicity was assessed in HCT-116 human colon carcinoma cells by MTS (3-(4,5-dimethylthiazol-2-yl)-5-(3-carboxymethoxyphenyl)-2-(4-sulphenyl)-2H-tetrazolium, inner salt) assay as reported in T. L. Riss, et. al., “Comparison of MTT, XTT, and a novel tetrazolium compound MTS for in vitro proliferation and chemosensitivity assays.” Mol. Biol. Cell 3 (Suppl.):184a, 1992. Cells were plated at 4,000 cell/well in 96 well microtiter plates and 24 hours later drugs were added and serial diluted. The cells were incubated at 37° form 72 hours at which time the tetrazolium dye, MTS at 333 μg/ml (final concentration), in combination with the electron coupling agent phenazine methosulfate at 25 μM (final concentration) was added. A dehydrogenase enzyme in live cells reduces the MTS to a form that absorbs light at […] which can be quantitated spectrophotometrically. The greater the absorbance the greater the number of live cells. The results are expressed as an IC50, which is the drug concentration required to inhibit cell proliferation (i.e. absorbance at 450 nm) to 50% of that of untreated control cells. The IC50 values for compounds evaluated in this assay are evaluated in Table I.

[4] = system: HCT-116 human colon carcinoma cells; assay: Cytotoxicity, XTT assay; format: cell-based; details: XTT procedure, 72 hours incubation
Description: as §6
Cytotoxicity was assessed in HCT-116 human colon carcinoma cells by XTT (2,3-bis(2-methoxy-4-nitro-5-sulfpphenyl)-5-[(phenylamino)carbonyl]2H-tetrazolium hydroxide) assay as reported in D. A. Scudiero, et al., “Evaluation of soluble tetrazolium/formazan assay for cell growth and drug sensitivity in culture using human and other tumor cell lines,” Cancer Res. 48:4827-4833, 1988. Cells were plated at 4000 cells/well in 96 well microtiter plates and 24 hours later drugs were added and serial diluted. The cells were incubated at 37° C. for 72 hours at which time the tetrazolium dye, XTT, was added. A dehydrogenase enzyme in live cells reduces the XTT to a form that absorbs light at 450 nm which can be quantitated spectrophotometrically. The greater the absorbance, the greater the number of live cells. The results are expressed as an IC50, which is the drug concentration required to inhibit cell proliferation (i.e., absorbance at 450 nm) to 50% of that of untreated control cells.

[5] = human or animal models, prior art; cited from earlier work

3′N-(2-furoyl)-7-deoxy paclitaxel [Ib]
IV Activity in LCK ([1]; iv, 20 mg/kg per injection, M109): 0.7 LCK
iv activity compared to concomitantly evaluated iv paclitaxel ([1]; iv): equiactive to paclitaxel
oral activity ([1]; oral, M109 model): active orally
PO Activity in LCK ([1]; po, 40 mg/kg per administration, M109): 0.7 LCK
oral activity compared to optimal iv paclitaxel ([2]; oral, A2780 model): equallyactive if not better
PO Activity in LCK ([2]; po, 85 mg/kg per administration, A2780): >7 LCK
Cures (mice cured / tested) ([2]; po, 85 mg/kg per administration, A2780, cure = tumor of 35 mg or less at termination): (1/8)**
IC50 [3]: 0.85 nM

7-deoxy-3′-(4-hydroxyphenyl)-3′N-t-butoxycarbonyl paclitaxel [Compound Ia]
IV Activity in LCK ([1]; iv, 13 mg/kg per injection, M109, log cell kill = (T-C)/(TVDT×3.32)): 1.4 LCK
iv activity compared to concomitantly evaluated iv paclitaxel ([1]; iv): surprising activity
IC50 [3]: 4.3 nM

10-(2-amino)benzoyl-7-deoxy paclitaxel [Ih]
IC50 [4]: 102 nM

CC(=O)OC12COC1CCC1(C)C(=O)C(OC(=O)N3CCOCC3)C3=C(C)C(OC(=O)C(O)C(NC(=O)c4ccccc4)c4ccccc4)CC(O)(C(OC(=O)c4ccccc4)C12)C3(C)C (stereo not drawn) [Ic, 10-Morpholinoyl-7-deoxy paclitaxel]
IC50 [4]: 1.49 nM

CCCCCCCC(=O)OC1C(=O)C2(C)CCC3OCC3(OC(C)=O)C2C(OC(=O)c2ccccc2)C2(O)CC(OC(=O)C(O)C(NC(=O)c3ccccc3)c3ccccc3)C(C)=C1C2(C)C (stereo not drawn) [Id, 10-Octanoyl-7-deoxy paclitaxel]
IC50 [4]: 98.2 nM

CC(=O)OC12COC1CCC1(C)C(=O)C(OC(=O)COc3ccccc3)C3=C(C)C(OC(=O)C(O)C(NC(=O)c4ccccc4)c4ccccc4)CC(O)(C(OC(=O)c4ccccc4)C12)C3(C)C (stereo not drawn) [Ie, 10-Phenoxyacetyl-7-deoxy paclitaxel]
IC50 [4]: 8.09 nM

CC(=O)OC12COC1CCC1(C)C(=O)C(OC(=O)c3ccccc3[N+](=O)[O-])C3=C(C)C(OC(=O)C(O)C(NC(=O)c4ccccc4)c4ccccc4)CC(O)(C(OC(=O)c4ccccc4)C12)C3(C)C (stereo not drawn) [If, 10-(2-Nitro)benzoyl-7-deoxy paclitaxel]
IC50 [4]: 13.3 nM

CC(=O)OC12COC1CCC1(C)C(=O)C(OC(=O)C=Cc3ccccc3)C3=C(C)C(OC(=O)C(O)C(NC(=O)c4ccccc4)c4ccccc4)CC(O)(C(OC(=O)c4ccccc4)C12)C3(C)C (stereo not drawn) [Ig, 10-Cinnamoyl-7-deoxy paclitaxel]
IC50 [4]: 28.4 nM

CC(=O)O[C@H]1C(=O)[C@@]2(C)[C@H]([C@H](OC(=O)c3ccccc3)[C@]3(O)C[C@H](OC(=O)[C@H](O)[C@@H](NC(=O)c4ccccc4)c4ccccc4)C(C)=C1C3(C)C)[C@]1(OC(C)=O)CO[C@@H]1C[C@@H]2O [Paclitaxel, paclitaxel, reference compound]
Optimal Activity of iv Paclitaxel ([1]; iv, optimal dose and schedule (qd×5), M109, concomitantly evaluated): 0.7 LCK
Optimal Activity of iv Paclitaxel ([2]; iv, optimal dose and schedule (q2d×5), A2780, concomitantly evaluated): 5.9 LCK
oral activity [5]: no oral activity

CC(=O)O[C@@]12CO[C@@H]1C[C@H](O)[C@@]1(C)C(=O)[C@H](O)C3=C(C)[C@@H](OC(=O)[C@H](O)[C@@H](NC(=O)OC(C)(C)C)c4ccccc4)C[C@@](O)([C@@H](OC(=O)c4ccccc4)[C@H]21)C3(C)C [TAXOTERE®, docetaxel]
oral activity [5]: no oral activity
